Consider 21 compounds from ChEMBL document CHEMBL5352437, “Identification and immunological evaluation of novel TLR2 agonists through structural optimization of Diprovocim” (Eur J Med Chem, 2022).

Series [1] concerns the target T1, Toll-like receptor 2 (Homo sapiens, UniProt O60603). Description: Agonist activity at human TLR2 expressed in HEK-Blue hTLR2 cells as SEAP expression incubated for 16 hrs by SEAP-based plate reader analysis. It is filed as cell-based.
Series [2] has as its system THP-1. Description: Cytotoxicity against human THP1 cells assessed as reduction in cell viability at 100 uM incubated for 24 hrs by CCK8 assay. The series is classed as toxicity, cell-based. The conditions noted are these: thp-1, 24 h. (In general: Formazan colour is commonly taken as a measure of viable cells.)
A short description of series [3]: Cytotoxicity against human HEK-Blue hTLR2 cells assessed as reduction in cell viability at 100 uM incubated for 24 hrs by CCK8 assay. The series is classed as toxicity, cell-based. The following applies: hek-blue htlr2, 24 h.
For series [4], the target named is T1, Toll-like receptor 2. Description: Agonist activity at human TLR2 expressed in HEK-Blue hTLR2 cells assessed as activation of TLR2-triggered SEAP signaling up to 10 uM incubated for 16 hrs by SEAP-based plate reader analysis. It is filed as cell-based. The following applies: filed as agonist.
In series [5] the target is T1, Toll-like receptor 2. Description: Agonist activity at human TLR2 expressed in HEK-Blue hTLR2 cells assessed as activation of TLR2-triggered SEAP signaling at 0.1 uM incubated for 16 hrs in presence of anti-hTLR1 by SEAP-based plate reader analysis. It is filed as cell-based.
In series [6] the target is T1, Toll-like receptor 2. The series is described as follows: Agonist activity at human TLR2 expressed in HEK-Blue hTLR2 cells assessed as activation of TLR2-triggered SEAP signaling at 0.1 uM incubated for 16 hrs in presence of anti-hTLR2 by SEAP-based plate reader analysis. The series is classed as cell-based.
In series [7] the test system is THP-1. Description: Upregulation of MyD88 protein expression in human PMA-differentiated THP-1 cells at 100 nM by Western blotting analysis. The following applies: time 0-120 min, TDE = time-dependent effect. It is filed as functional, cell-based. A general note: In western blotting, separated proteins are transferred to a membrane and probed.
In series [8] the test system is THP-1. The series is described as follows: Induction of p65 phosphorylation in human PMA-differentiated THP-1 cells at 100 nM incubated up to 120 mins by Western blotting analysis. The series is classed as functional, cell-based.
In series [9] the test system is THP-1. Description: Induction of TNFalpha production in human PMA-differentiated THP-1 cells supernatant incubated for 4 hrs by ELISA method. The series is classed as functional, cell-based. On the technique in general: In an ELISA, binding on a coated surface is turned into a signal by an enzyme label.
For series [10], the system named is THP-1. The series is described as follows: Induction of IL1beta production in human PMA-differentiated THP-1 cells supernatant incubated for 4 hrs by ELISA method. The series is classed as functional, cell-based.
For series [11], the system named is THP-1. Description: Induction of IL6 production in human PMA-differentiated THP-1 cells supernatant incubated for 4 hrs by ELISA method. It is filed as functional, cell-based.
Series [12] relates to THP-1. Description: Induction of p38 phosphorylation in human PMA-differentiated THP-1 cells at 100 nM incubated up to 120 mins by Western blotting analysis. It is filed as functional, cell-based.
Series [13] concerns THP-1. Description: Induction of JNK phosphorylation in human PMA-differentiated THP-1 cells at 100 nM incubated up to 120 mins by Western blotting analysis. It is filed as functional, cell-based.

The structures appear in SMILES notation. pEC50: −log10 of the molar value. Calls of active or inactive are those of the source. The rule behind the calls is not given here.

T1 sequence (O60603 whole entry): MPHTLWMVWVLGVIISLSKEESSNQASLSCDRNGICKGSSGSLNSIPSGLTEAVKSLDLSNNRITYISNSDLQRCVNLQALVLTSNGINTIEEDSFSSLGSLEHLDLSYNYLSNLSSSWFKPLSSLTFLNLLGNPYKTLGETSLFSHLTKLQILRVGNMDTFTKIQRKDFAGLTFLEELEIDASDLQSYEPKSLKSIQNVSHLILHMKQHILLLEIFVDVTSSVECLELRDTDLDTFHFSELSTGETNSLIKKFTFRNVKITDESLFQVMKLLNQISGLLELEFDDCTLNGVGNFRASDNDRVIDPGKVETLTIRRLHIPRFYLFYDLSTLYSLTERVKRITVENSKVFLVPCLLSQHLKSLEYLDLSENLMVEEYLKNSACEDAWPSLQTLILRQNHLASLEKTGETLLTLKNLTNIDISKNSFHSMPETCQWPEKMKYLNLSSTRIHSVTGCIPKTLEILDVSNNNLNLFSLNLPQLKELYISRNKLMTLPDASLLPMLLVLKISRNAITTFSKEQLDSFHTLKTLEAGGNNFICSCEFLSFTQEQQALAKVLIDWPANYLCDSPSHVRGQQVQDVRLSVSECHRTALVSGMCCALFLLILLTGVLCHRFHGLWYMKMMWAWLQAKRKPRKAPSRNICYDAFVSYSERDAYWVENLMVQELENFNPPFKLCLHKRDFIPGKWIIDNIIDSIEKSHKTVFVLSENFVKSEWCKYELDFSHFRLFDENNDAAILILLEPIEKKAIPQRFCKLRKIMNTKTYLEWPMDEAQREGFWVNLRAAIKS

The term pEC50 denotes the negative decadic logarithm of the EC50, by convention in mol/L. In the case of `CC1CN(C(=O)c2ccc(C(=O)N3CC(C)[C@H](C(=O)N[C@H]4C[C@@H]4c4ccccc4)C3)cc2)CC1C(=O)N[C@H]1C[C@@H]1c1ccccc1` (stereo not given in full), on Toll-like receptor 2 [1], the pEC50 was less than 5.30.
Same read-out and setting: the figure for `O=C(N[C@H]1C[C@@H]1c1ccccc1)C1CN(C(=O)c2ccc(C(=O)N3C[C@@H](C(=O)N[C@H]4C[C@@H]4c4ccccc4)[C@H](C(=O)N[C@H]4C[C@@H]4c4ccccc4)C3)cc2)CC1CF` (stereo not given in full) is less than 5.30; for `CCCC1CN(C(=O)c2ccc(C(=O)N3C[C@@H](C(=O)N[C@H]4C[C@@H]4c4ccccc4)[C@H](C(=O)N[C@H]4C[C@@H]4c4ccccc4)C3)cc2)CC1C(=O)N[C@H]1C[C@@H]1c1ccccc1` (stereo not given in full) it is 6.97.
For `CCCC[C@H]1CN(C(=O)c2ccc(C(=O)N3C[C@@H](C(=O)N[C@H]4C[C@@H]4c4ccccc4)[C@H](C(=O)N[C@H]4C[C@@H]4c4ccccc4)C3)cc2)C[C@@H]1C(=O)N[C@H]1C[C@@H]1c1ccccc1`, at Toll-like receptor 2 [1], the pEC50 was 7.46. In addition, the Activity entry was “Non-Toxic” with THP-1 [2]; “Non-Toxic” in series [3]; “Tde” with THP-1 [7]; “Dose-Dependent Effect” with THP-1 [9]; “Dose-Dependent Effect” with THP-1 [10]; “Dose-Dependent Effect” in the series on THP-1 [11]. In addition, the outcome at Toll-like receptor 2 [4], in the series with THP-1 [8], with THP-1 [12] and with THP-1 [13] was Active. For the same compound, the outcome on Toll-like receptor 2 [5] and at Toll-like receptor 2 [6] was inactive.
Take `CC(C)C1CN(C(=O)c2ccc(C(=O)N3CC(C(C)C)[C@H](C(=O)N[C@H]4C[C@@H]4c4ccccc4)C3)cc2)CC1C(=O)N[C@H]1C[C@@H]1c1ccccc1` (stereo not given in full): the negative-log EC50 (pEC50) at Toll-like receptor 2 [1] was less than 5.30.
`CC(C)C1CN(C(=O)c2ccc(C(=O)N3C[C@@H](C(=O)N[C@H]4C[C@@H]4c4ccccc4)[C@H](C(=O)N[C@H]4C[C@@H]4c4ccccc4)C3)cc2)CC1C(=O)N[C@H]1C[C@@H]1c1ccccc1` (stereo not given in full) showed a pEC50 on Toll-like receptor 2 [1] of 6.15.
Take `CCC1CN(C(=O)c2ccc(C(=O)N3CC(CC)[C@H](C(=O)N[C@H]4C[C@@H]4c4ccccc4)C3)cc2)CC1C(=O)N[C@H]1C[C@@H]1c1ccccc1` (stereo not given in full): the pEC50 on Toll-like receptor 2 [1] is less than 5.30.
For `CCCCC1CN(C(=O)c2ccc(C(=O)N3C[C@@H](C(=O)N[C@H]4C[C@@H]4c4ccccc4)[C@H](C(=O)N[C@H]4C[C@@H]4c4ccccc4)C3)cc2)CC1C(=O)N[C@H]1C[C@@H]1c1ccccc1` (stereo not given in full), the pEC50 on Toll-like receptor 2 [1] was 7.43.
As for `O=C(N[C@H]1C[C@@H]1c1ccccc1)[C@H]1CCN(C(=O)c2ccc(C(=O)N3C[C@@H](C(=O)N[C@H]4C[C@@H]4c4ccccc4)[C@H](C(=O)N[C@H]4C[C@@H]4c4ccccc4)C3)cc2)C1`, the pEC50 on Toll-like receptor 2 [1] was less than 5.30.
Same read-out and setting: with `CCCC1CN(C(=O)c2ccc(C(=O)N3CC(CCC)[C@H](C(=O)N[C@H]4C[C@@H]4c4ccccc4)C3)cc2)CC1C(=O)N[C@H]1C[C@@H]1c1ccccc1` (stereo not given in full) the figure was less than 5.30; with `CCC[C@@H]1CN(C(=O)c2ccc(C(=O)N3C[C@@H](C(=O)N[C@H]4C[C@@H]4c4ccccc4)[C@H](C(=O)N[C@H]4C[C@@H]4c4ccccc4)C3)cc2)C[C@H]1C(=O)N[C@H]1C[C@@H]1c1ccccc1`, 6.75.
Still for that read-out and setting: with `CCC1CN(C(=O)c2ccc(C(=O)N3C[C@@H](C(=O)N[C@H]4C[C@@H]4c4ccccc4)[C@H](C(=O)N[C@H]4C[C@@H]4c4ccccc4)C3)cc2)CC1C(=O)N[C@H]1C[C@@H]1c1ccccc1` (stereo not given in full) the figure was 6.29.
On to `CCCCC1CN(C(=O)c2ccc(C(=O)N3CC(CCCC)[C@H](C(=O)N[C@H]4C[C@@H]4c4ccccc4)C3)cc2)CC1C(=O)N[C@H]1C[C@@H]1c1ccccc1` (stereo not given in full), for which the pEC50 at Toll-like receptor 2 [1] was 5.82.
On Toll-like receptor 2 [1], `CC(C)CC1CN(C(=O)c2ccc(C(=O)N3C[C@@H](C(=O)N[C@H]4C[C@@H]4c4ccccc4)[C@H](C(=O)N[C@H]4C[C@@H]4c4ccccc4)C3)cc2)CC1C(=O)N[C@H]1C[C@@H]1c1ccccc1` (stereo not given in full) showed a pEC50 of 6.54.
The same measure, in the same setting: with `O=C(N[C@H]1C[C@@H]1c1ccccc1)C1CN(C(=O)c2ccc(C(=O)N3C[C@@H](C(=O)N[C@H]4C[C@@H]4c4ccccc4)[C@H](C(=O)N[C@H]4C[C@@H]4c4ccccc4)C3)cc2)C1` the figure was less than 5.30.
As to `CC1CN(C(=O)c2ccc(C(=O)N3C[C@@H](C(=O)N[C@H]4C[C@@H]4c4ccccc4)[C@H](C(=O)N[C@H]4C[C@@H]4c4ccccc4)C3)cc2)CC1C(=O)N[C@H]1C[C@@H]1c1ccccc1` (stereo not given in full), the pEC50 at Toll-like receptor 2 [1] was 6.15.
`CCCC[C@@H]1CN(C(=O)c2ccc(C(=O)N3C[C@@H](C(=O)N[C@H]4C[C@@H]4c4ccccc4)[C@H](C(=O)N[C@H]4C[C@@H]4c4ccccc4)C3)cc2)C[C@H]1C(=O)N[C@H]1C[C@@H]1c1ccccc1` showed a pEC50 at Toll-like receptor 2 [1] of 7.41. In addition, the Activity entry in the series with THP-1 [2] was “Non-Toxic”; in series [3] it was “Non-Toxic”; with THP-1 [7], “Tde”; with THP-1 [9] it was “Dose-Dependent Effect”; in the series on THP-1 [10], “Dose-Dependent Effect”; in the series with THP-1 [11] it was “Dose-Dependent Effect”. Besides, the result at Toll-like receptor 2 [4], in the series on THP-1 [8], with THP-1 [12] and in the series with THP-1 [13] was Active. For the same compound, the result at Toll-like receptor 2 [5] and at Toll-like receptor 2 [6] was inactive.
As for `CC(C)CC1CN(C(=O)c2ccc(C(=O)N3CC(CC(C)C)[C@H](C(=O)N[C@H]4C[C@@H]4c4ccccc4)C3)cc2)CC1C(=O)N[C@H]1C[C@@H]1c1ccccc1` (stereo not given in full), the pEC50 on Toll-like receptor 2 [1] was less than 5.30.
The compound `CCC[C@H]1CN(C(=O)c2ccc(C(=O)N3C[C@@H](C(=O)N[C@H]4C[C@@H]4c4ccccc4)[C@H](C(=O)N[C@H]4C[C@@H]4c4ccccc4)C3)cc2)C[C@@H]1C(=O)N[C@H]1C[C@@H]1c1ccccc1` gave a pEC50 at Toll-like receptor 2 [1] of 7.06.
On the same count and under the same terms, with `O=C(N[C@H]1C[C@@H]1c1ccccc1)C1CN(C(=O)c2ccc(C(=O)N3C[C@@H](C(=O)N[C@H]4C[C@@H]4c4ccccc4)[C@H](C(=O)N[C@H]4C[C@@H]4c4ccccc4)C3)cc2)CC1CO` (stereo not given in full) the figure was less than 5.30; with `O=C(N[C@H]1C[C@@H]1c1ccccc1)C1CCN(C(=O)c2ccc(C(=O)N3C[C@@H](C(=O)N[C@H]4C[C@@H]4c4ccccc4)[C@H](C(=O)N[C@H]4C[C@@H]4c4ccccc4)C3)cc2)CC1`, less than 5.30.
